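Values below derive from 48-hour exposures of cells grown in 96-well plates, with endpoints linearly interpolated between the two concentrations bracketing the appropriate inhibition level. The concentration for 50% growth inhibition is given as GI50. TGI is the concentration that stops growth completely.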
Key:
Test in all cases: NCI anticancer screen, dose series, 48 h
[1] = tested on: M14 melanoma
[2] = tested on: UO-31 renal
[3] = tested on: MDA-N
[4] = tested on: RPMI-8226 leukemia
[5] = tested on: SK-MEL-2 melanoma
[6] = tested on: ACHN renal
[7] = tested on: NCI-H460 lung
[8] = tested on: T-47D breast
[9] = tested on: COLO 205 colon
[10] = tested on: HCC-2998 colon
[11] = tested on: LOX IMVI melanoma

SMILES | TGI [1] [µM] | TGI [2] [µM] | TGI [3] [µM] | TGI [4] [µM] | TGI [5] [µM] | TGI [6] [µM] | TGI [7] [µM] | TGI [8] [µM] | TGI [9] [µM] | TGI [10] [µM] | TGI [11] [µM] | GI50 [1] [µM] | GI50 [2] [µM] | GI50 [4] [µM] | GI50 [10] [µM] | GI50 [5] [µM] | GI50 [6] [µM] | GI50 [7] [µM] | GI50 [9] [µM]
CC(C(=O)NCNC(=O)c1ccccc1)C(=O)NCc1ccccc1 (centres undefined) | > 100 | > 100 | > 100 | > 100 | > 100 | > 100 | > 100 | > 100 | > 100 | – | – | – | – | – | – | – | – | – | –
COc1nc2c(c(=O)[nH]1)N=C(c1ccc([N+](=O)[O-])cc1)CC(c1ccccc1)N2 (centres undefined) | > 100 | > 100 | > 100 | > 100 | > 100 | > 100 | > 100 | – | > 100 | > 100 | > 100 | – | – | – | – | – | – | – | –
O=[N+]([O-])c1ccc(-c2ccc([C@H]3CC(c4cc(F)c(Cl)cc4Cl)=NN3)o2)cc1 | > 100 | > 100 | > 100 | > 100 | – | > 100 | > 100 | 61.8 | – | 38.7 | > 100 | – | – | – | – | – | – | – | –
CCOC(=O)c1cn2c(n1)sc1cc([N+](=O)[O-])ccc12 | > 100 | > 100 | – | > 100 | > 100 | > 100 | > 100 | > 100 | > 100 | > 100 | > 100 | – | – | – | – | – | – | – | –
C[N+](C)(C)CC(=O)N/N=C\c1c(O)ccc2ccccc12 | > 100 | > 100 | > 100 | > 100 | > 100 | > 100 | 70.5 | > 100 | > 100 | – | > 100 | – | – | – | – | – | – | – | –
CC12CCC(C(=Nc3ccc([N+](=O)[O-])cc3)C1=O)C2(C)C (centres undefined) | > 100 | > 100 | – | 52.3 | 49.2 | > 100 | > 100 | 69.5 | 44.6 | 38.2 | 31.3 | – | – | – | – | – | – | – | –
COCc1nc(C#N)c(N)o1 | > 10 | > 10 | > 10 | > 10 | – | > 10 | > 10 | > 10 | > 10 | > 10 | > 10 | – | – | – | – | – | – | – | –
O=C(O)OC12CCCCCC1C(=O)C1CCCCC12 (centres undefined) | > 100 | > 100 | – | > 100 | > 100 | > 100 | > 100 | – | > 100 | – | > 100 | – | – | – | – | – | – | – | –
C/C(=C\COP(=O)(O)CP(=O)(O)O)CC/C=C(\C)CNc1ccccc1 | > 100 | > 100 | – | > 100 | > 100 | > 100 | > 100 | > 100 | > 100 | – | > 100 | – | – | – | – | – | – | – | –
O[C@@H]1CCCCN1Cc1cc2cc3c(cc2c2cc(OCc4ccccc4)ccc12)OCO3 | 2.96 | 2.89 | – | 3.38 | 3.16 | 2.79 | 2.76 | – | 2.66 | 1.83 | – | 1.59 | 1.53 | 1.41 | 0.509 | 1.7 | 1.47 | 1.37 | 1.28
O=[N+]([O-])c1cccc(-c2ccc([C@H]3CC(c4ccc(Cl)cc4)=NN3)o2)c1 | > 100 | 40.9 | 66.7 | 45.6 | – | 34.4 | – | 41.7 | > 100 | 38.1 | – | – | – | – | – | – | – | – | –
CC1=C(C(N)=O)C(c2ccncc2)C(C#N)C(=O)N1 (centres undefined) | > 100 | > 100 | – | > 100 | > 100 | > 100 | > 100 | > 100 | > 100 | > 100 | > 100 | – | – | – | – | – | – | – | –
C[C@H]1CC(=O)C[C@@H]2CC[C@@H]3[C@H](CC[C@]4(C)C(OC(=O)c5cccc6c(=O)c7ccccc7[nH]c56)CC[C@@H]34)[C@]21C (some centres undefined) | > 100 | 95.1 | – | 55.6 | > 100 | > 100 | > 100 | > 100 | 62.9 | > 100 | > 100 | – | – | – | – | – | – | – | –
CCOP(=O)(OCC)/C(F)=C/c1ccc(F)cc1 | > 100 | > 100 | > 100 | > 100 | > 100 | > 100 | > 100 | > 100 | > 100 | – | > 100 | – | – | – | – | – | – | – | –
CCOC(=O)c1sc(N)nc1N1CCCC1 | > 100 | > 100 | > 100 | > 100 | > 100 | > 100 | > 100 | > 100 | > 100 | – | > 100 | – | – | – | – | – | – | – | –
CN1CN(c2ccccc2)C2(CCN(CCCN(C)c3ccc(F)cc3)CC2)C1=O | 30.7 | 40.3 | 30.7 | 80.4 | 33.5 | 53.2 | 32.9 | 41.7 | 24.1 | – | 31 | – | – | – | – | – | – | – | –
COc1cccc(O)c1-c1cc(=O)c2c(O)c(OC)c(OC)c(OC)c2o1 | 68.4 | > 100 | 49.2 | 58.4 | 52.4 | > 100 | 52.1 | – | 39.1 | 25.4 | > 100 | – | – | – | – | – | – | – | –
C=C1C(=O)O[C@H]2[C@@H]3O[C@@](C)(CC/C=C(\C)CCC[C@@H]2C)[C@H](O)C[C@@H]13 | 5.86 | 11.9 | 10.1 | – | 27 | 6.25 | – | 16.8 | 8.86 | 31.6 | 16.2 | – | – | – | – | – | – | – | –
O=C(NNC(=O)c1cc2ccccc2[nH]1)c1cc2ccccc2[nH]1 | > 100 | > 100 | > 100 | > 100 | > 100 | – | > 100 | > 100 | > 100 | – | > 100 | – | – | – | – | – | – | – | –
O=C1/C(=C/c2ccc(Cl)cc2)NC(=S)N1CN1CCCCC1 | > 100 | > 100 | > 100 | 76.5 | > 100 | > 100 | – | – | 64.1 | – | > 100 | – | – | – | – | – | – | – | –
COc1ccc2c(c1)SC1=Nc3sc4cc(OC)ccc4[n+]3CN12 | > 100 | > 100 | > 100 | 88.4 | 65.3 | > 100 | 72.8 | 38.3 | 11.6 | – | – | – | – | – | – | – | – | – | –

Source: PubChem BioAssay (NCI)
